Laboratory results reported in paper PMC7497679, “Structure-based design, synthesis, and evaluation of the biological activity of novel phosphoroorganic small molecule IAP antagonists” (Investigational New Drugs, 2020).
Like-named read-outs stand apart in the source and are kept apart here.

How the values were obtained:
A549 = test: Antiproliferative activity, SRB method; format: cell-based, human; conditions: 72 h; for inhibition at 10 µM: Homo sapiens, A549, 10 µM, read-out: mean proliferation inhibition at highest concentration used, A549
Source text: (§1) MDA-MB-231 (human breast cancer), MCF10A (human, nontumorigenic mammary gland epithelial cells), A549 (human nonsmall-cell lung cancer), UMUC-3 (human bladder cancer) and LoVo (human colon cancer) cell lines were obtained from the American Type Culture Collection (ATCC; Rockville, Maryland, USA). The MCF-7 cell line (human breast cancer) was obtained from the European Collection of Cell Cultures (ECACC; Salisbury, UK). All cell lines were maintained at the Hirszfeld Institute of Immunology and Experimental Therapy (HIIET), Wrocław, Poland. MDA-MB-231 cells were cultured in RPMI1640 medium (Thermo Fisher Scientific, Warszawa, Poland) supplemented with 2 mM L-glutamine, 1 mM sodium pyruvate, and 10% fetal bovine serum (all from Sigma-Aldrich, Poznań, Poland). The MCF10A cell line was cultured in Ham’s F12 medium with glutamine (Corning) supplemented with 5% (v/v) fetal bovine serum (FBS), 5% (v/v) horse serum, 10 µg/mL insulin, 0.05 µg/mL cholera toxin, 0.5 µg/mL hydrocortisone, and 20 ng/mL hEGF (all from Sigma-Aldrich). A549 and LoVo cells were cultured in a 1:1 (v/v) mixture of RPMI1640 and Opti-MEM (both from HIIET) supplemented with 5% (v/v) FBS and 2 mM L-glutamine. The UMUC-3 cell line was cultured in high glucose DMEM (Thermo Fisher Scientific) supplemented with 10% FBS and 2 mM Lglutamine. The MCF-7 line was cultured in Eagle’s minimal essential medium (EMEM; Thermo Fisher Scientific) supplemented with 10% (v/v) FBS, 2 mM L-glutamine, 1% (v/v) nonessential amino acids, and 8 µg/mL insulin (all from Sigma-Aldrich). All culture media contained 100 µg/mL streptomycin (Sigma-Aldrich) and 100 U/mL penicillin (Polfa Tarchomin SA, Warszawa, Poland). The cells were grown at 37 °C in a humid atmosphere saturated with 5% CO2.
(§2) Antiproliferative activity was assessed in six cell lines utilizing the sulforhodamine B (SRB) method. Briefly, cells were seeded in 96-well plates (Sarstedt, Warszawa, Poland) at a density of 5 × 10^3 cells/well, and after overnight incubation, the cells were exposed to compounds at various concentrations. After 72 h, the plates were fixed with 50% (v/v) TCA (all from Sigma-Aldrich), washed with tap water, and the precipitated proteins were labeled with 0.1% (w/v) SRB solution in 1% (v/v) AcOH. Next, the plates were washed with 1% (v/v) AcOH, and the remaining SRB dye was solubilized with 10 mM unbuffered TRIS solution. The absorbance was measured using a Biotek Hybrid H4 reader (BioTek Instruments, VT, USA) at 540 nm. Crude results were analyzed using a previously described method, and the results are expressed as the IC50 (compound concentration that reduced cell growth by 50%) compared to the vehicletreated control (0.1% (v/v) DMSO). The samples were analyzed in triplicate, and each experiment was repeated at least three times.

LoVo = test: Antiproliferative activity, SRB method; format: cell-based, human; conditions: 72 h; for inhibition at 10 µM: Homo sapiens, LoVo, read-out: mean proliferation inhibition at highest concentration used, LoVo
Source text: as §1, §2

MCF-10A = test: Antiproliferative activity, SRB method; format: cell-based, human; conditions: 72 h; for inhibition at 10 µM: Homo sapiens, MCF-10A, read-out: mean proliferation inhibition at highest concentration used, MCF-10A
Source text: as §1, §2

MCF-7 = test: Antiproliferative activity, SRB method; format: cell-based, human; conditions: 72 h; for inhibition at 10 µM: Homo sapiens, MCF7, 10 µM, read-out: mean proliferation inhibition at highest concentration used, MCF-7
Source text: as §1, §2

MDA-MB-231 = test: Antiproliferative activity, SRB method; format: cell-based, human; conditions: read-out: IC50 ± SD (n = 3) MDA-MB-231
Source text: as §1, §2

UMUC-3 = test: Antiproliferative activity, SRB method; format: cell-based, human; conditions: 72 h; for inhibition at 10 µM: Homo sapiens, UMUC3, 10 µM, read-out: mean proliferation inhibition at highest concentration used, UMUC-3
Source text: as §1, §2

XIAP BIR3 domain = target: T1, XIAP BIR3 domain (Homo sapiens, UniProt P98170); test: Fluorescence polarization inhibition (competition) assay; format: binding; conditions: for inhibition at 50 µM: 0.5 h, antagonist 50 µM, inhibition of protein-probe interaction; for Ki / EC50: XIAP BIR3 50 nM, fluorescent probe 4 2 nM
T1 construct: fluorescent probe 4 and the XIAP BIR3 domain (Sino Biological, Beijing, China) were used for all measurements; purchased Sino Biological, Beijing, China
Procedure: The fluorescence polarization assay was performed at r.t. in Corning 384-well black, polystyrene flat bottom plates (Corning, NY, USA) on a Synergy H4 Hybrid Reader (BioTek, Bad Friedrichshall, Germany). For fluorescence polarization measurements, (milipolarization units, mP) 484/20 nm excitation and 528/20 nm emission filters were selected. Phosphate buffer (pH 7.5) supplemented with γ-globulin (100 µg/mL) and NaN3 (0.02% w/v), fluorescent probe 4 and the XIAP BIR3 domain (Sino Biological, Beijing, China) were used for all measurements. All experiments were performed in duplicate. The obtained fluorescence polarization assay data were analyzed with Prism 5.0 Software (GraphPad Software, San Diego, ca.).
After a 15 min incubation at r.t., fluorescent probe 4 (2 nM) was added. The values were measured 30 min after the moment the probe was added. The assay was performed in phosphate buffer with a final DMSO concentration of 1.4% (v/v). […] In order to evaluate the quality and precision of the performed screening assay, we determined the Z´ factor as described by Zhang et al.. The obtained fluorescence polarization values were used to determine the percent inhibition, which was plotted as a function of the protein concentration. The EC50 and Ki values were calculated with GraphPad software (log(agonist) vs. response (variable slope) model) in combination with the web tool developed by Nikolovska-Coleska et al..
Fluorescence polarization inhibition assay and data analysis for 41m and 42m compounds was performed as described in the Material and Methods section of the manuscript. Briefly, 50 nM solution of the BIR3 XIAP protein in polarization buffer was added into phosphoroorganic compound solution (from 50 μM to 0.0537 nM). After 15 min incubation at r.t. the fluorescent probe 4 (2 nM) was added.
The values were read after 30 minutes from the moment the probe was added. The obtained fluorescence polarization values were used to determine the percentage of inhibition which was plotted as a function of the protein concentration (Supplementary Figure S4).
(1 picture or pasted object on this page, not shown here)

T1 sequence (P98170 252-356 limits assumed): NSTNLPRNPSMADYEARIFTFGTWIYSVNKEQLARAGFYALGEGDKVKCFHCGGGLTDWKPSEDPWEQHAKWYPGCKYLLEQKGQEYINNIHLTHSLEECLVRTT

Structure (SMILES) | IC50 (A549; read-out: IC50 ± SD (n = 3) A549) | IC50 (LoVo; read-out: IC50 ± SD (n = 3) LoVo) | IC50 (MCF-10A; read-out: IC50 ± SD (n = 3) MCF-10A) | IC50 (MCF-7; read-out: IC50 ± SD (n = 3) MCF-7) | IC50 (MDA-MB-231; 72 h) | IC50 (UMUC-3; read-out: IC50 ± SD (n = 3) UMUC-3) | inhibition at 50 µM (XIAP BIR3 domain) | Ki (XIAP BIR3 domain) | EC50 (XIAP BIR3 domain; read-out: EC50) | EC50 (XIAP BIR3 domain; read-out: log EC50 (converted)) | inhibition at 10 µM (A549) | inhibition at 10 µM (LoVo) | inhibition at 10 µM (MCF-10A) | inhibition at 10 µM (MCF-7) | IC50 (MDA-MB-231; Homo sapiens, MDA-MB-231, 72 h) | inhibition at 10 µM (UMUC-3)
[NH2][Pt]([NH2])([Cl])[Cl] [CDDP, cisplatin, reference compound] | 1.6 ± 0.4 µM | 3.9 ± 1.3 µM | 6.76 ± 1.2 µM | 5.36 ± 1.8 µM | 22.1 ± 5.26 µM | 3.73 ± 0.63 µM |  |  |  |  |  |  |  |  |  | 
CN[C@@H](C)C(=O)N[C@H](C(=O)N1CCC[C@H]1C(=O)NC(Cc1ccccc1)P(=O)(c1ccccc1)c1ccccc1)C(C)C (stereo partly shown) [Compound 13] |  |  |  |  |  |  | 100% | 0.75 µM | 1.53 µM | 1.53 µM | 2% | 6% | 5% | 22% | 3.39 ± 0.42 µM | 6%
CN[C@@H](C)C(=O)N[C@H](C(=O)N1CCC[C@H]1C(=O)NC(Cc1ccccc1)P(=O)(c1ccccc1)c1ccccc1)C1CCCCC1 (stereo partly shown) [Compound 14] |  |  |  |  |  |  | 100% | 0.64 µM | 1.31 µM | 1.31 µM | 5% | 7% | 1% | 20% | 2.72 ± 0.69 µM | 8%
CCC(NC(=O)[C@@H]1CCCN1C(=O)[C@@H](NC(=O)[C@H](C)NC)C1CCCCC1)P(=O)(Oc1ccccc1)Oc1ccccc1 (stereo partly drawn) [Compound 32, diphenyl (1-((S)-1-((S)-2-cyclohexyl-2-((S)-2-(methylamino)propanamido)acetyl)pyrrolidine-2-carboxamido)propyl)phosphonate] |  |  |  |  |  |  | 71% | 11.9 µM | 24 µM | 24 µM |  |  |  |  |  | 
CN[C@@H](C)C(=O)N[C@H](C(=O)N1CCC[C@H]1C(=O)NC(C(C)C)P(=O)(Oc1ccccc1)Oc1ccccc1)C(C)C (stereo partly drawn) [Compound 33, diphenyl (2-methyl-1-((S)-1-((S)-3-methyl-2-((S)-2-(methylamino)propanamido)butanoyl)pyrrolidine-2-carboxamido)propyl)phosphonate] |  |  |  |  |  |  | 58.5% | 17.4 µM | 35 µM | 34.9 µM |  |  |  |  |  | 
CN[C@@H](C)C(=O)N[C@H](C(=O)N1CCC[C@H]1C(=O)NC(C(C)C)P(=O)(Oc1ccccc1)Oc1ccccc1)C1CCCCC1 (stereo partly shown) [Compound 34] |  |  |  |  |  |  | 70.5% | 11.8 µM | 23.9 µM | 23.9 µM |  |  |  |  |  | 
CCC(C)C(NC(=O)[C@@H]1CCCN1C(=O)[C@@H](NC(=O)[C@H](C)NC)C(C)C)P(=O)(Oc1ccccc1)Oc1ccccc1 (stereo partly shown) [Compound 35] |  |  |  |  |  |  | 77.4% | 8.84 µM | 17.8 µM | 17.8 µM |  |  |  |  |  | 
CCC(C)C(NC(=O)[C@@H]1CCCN1C(=O)[C@@H](NC(=O)[C@H](C)NC)C1CCCCC1)P(=O)(Oc1ccccc1)Oc1ccccc1 (stereo partly shown) [Compound 36] |  |  |  |  |  |  | 81.4% | 8.05 µM | 16.2 µM | 16.3 µM |  |  |  |  |  | 
